Experimental findings from ChEMBL document CHEMBL1201862, “PubChem BioAssay data set” (2004) are described below.

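Values below derive from 48-hour exposures of cells grown in 96-well plates, with endpoints linearly interpolated between the two concentrations bracketing the appropriate inhibition level. At the GI50, growth is halved.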 Activity calls are given as the source filed them. Rule as the data show it: active = GI50 up to about 1.1 µM and inactive = higher.

Test systems include HOP-62; BT-549; T47D; SNB-75; NCI-H522; NCI/ADR-RES; ACHN; A549; SN12C; SW-620; SR; PC-3; SK-MEL-28; SK-OV-3; CCRF-CEM; MCF7; Malme-3M; HCT-116; Hs-578T; UACC-62.
Test in all cases: NCI anticancer screen, dose series, 48 h

In the case of `Cc1cc(C)nc(NS(=O)(=O)c2ccc(NNc3c4ccccc4nc4c(C(=O)Nc5ccc(S(=O)(=O)N=C(N)N)cc5)cccc34)cc2)n1`, the GI50 with HOP-62 is > 100 µM (inactive); in the assay on BT-549, 56 µM (inactive); in the assay with T47D, 25.8 µM (inactive); in the assay with SNB-75, 28.4 µM (inactive); in the assay on NCI-H522, 36.6 µM (inactive); in the assay on NCI/ADR-RES, > 100 µM (inactive). For the same molecule, the GI50 was 45 µM (inactive) in the assay with ACHN; > 100 µM (inactive) in the assay with A549; 64.1 µM (inactive) in the assay on SN12C; 71.6 µM (inactive) with SW-620; 27.5 µM (inactive) in the assay with SR; 31.6 µM (inactive) in the assay with PC-3. In addition, the GI50 in the assay with SK-MEL-28 was 17.6 µM (inactive); in the assay with SK-OV-3, 24.8 µM (inactive); with CCRF-CEM, 34.6 µM (inactive); in the assay on MCF7, 76 µM (inactive); with Malme-3M it was 76 µM (inactive); with HCT-116, 48 µM (inactive).
For the molecule `Cc1c(S(=O)(=O)N/C(=N\O)Nc2ccc(Cl)cc2)sc2ccc(Cl)cc12`, the GI50 with HOP-62 was 17.7 µM (inactive); in the assay with BT-549 it was 17.4 µM (inactive); in the assay with T47D it was 19 µM (inactive); with SNB-75 it was 18.7 µM (inactive); with NCI-H522, 9.91 µM (inactive); in the assay with NCI/ADR-RES, 18 µM (inactive). Besides, the GI50 was 15.2 µM (inactive) with ACHN; 18.8 µM (inactive) in the assay with Hs-578T; 16.4 µM (inactive) in the assay on A549; 20.3 µM (inactive) in the assay on SN12C; 25.1 µM (inactive) in the assay on SW-620; 17.1 µM (inactive) with PC-3. In addition, the GI50 was 16.4 µM (inactive) with SK-MEL-28; 15.6 µM (inactive) in the assay with SK-OV-3; 16.1 µM (inactive) in the assay on UACC-62; 38.4 µM (inactive) in the assay with CCRF-CEM; 18.5 µM (inactive) with Malme-3M; 13.9 µM (inactive) with HCT-116.
In the case of `COc1cccc(N2C(=O)C3c4[nH]c5ccc(C)cc5c4C4CCC(C)CC4C3C2=O)c1` (stereo unspecified), the GI50 in the assay on HOP-62 is 1.4 µM (inactive); with BT-549 it was 76 µM (inactive); with NCI/ADR-RES, > 100 µM (inactive); in the assay on ACHN, > 100 µM (inactive); in the assay with Hs-578T, 23.7 µM (inactive); in the assay with A549, > 100 µM (inactive). Also, the GI50 with SN12C is > 100 µM (inactive); in the assay on SW-620, > 100 µM (inactive); in the assay on SR, > 10 µM (inactive); in the assay with PC-3, > 100 µM (inactive); in the assay on SK-MEL-28, > 100 µM (inactive); in the assay on SK-OV-3, 30.3 µM (inactive). Besides, the GI50 in the assay with UACC-62 is 30.3 µM (inactive); in the assay with CCRF-CEM, 31.7 µM (inactive); in the assay with MCF7 it was > 100 µM (inactive); with Malme-3M it was > 100 µM (inactive); in the assay with HCT-116 it was > 100 µM (inactive).
As to `Oc1cc(CF)nc(S)n1`, the GI50 in the assay on HOP-62, with BT-549, in the assay on T47D, with SNB-75, in the assay on NCI-H522 and in the assay with NCI/ADR-RES was > 100 µM (inactive) in each case. The GI50 with ACHN, in the assay with Hs-578T, in the assay on A549, with SN12C, in the assay on SW-620 and in the assay with SR was > 100 µM (inactive) in each case. In addition, the GI50 in the assay with PC-3, with SK-MEL-28, in the assay on UACC-62, in the assay on CCRF-CEM, with Malme-3M and in the assay with HCT-116 was > 100 µM (inactive) each time.
Take `CC(C)(C)OC(=O)N1CCCC1C(=O)NCCNc1ccc(NCCNC(=O)C2CCCN2C(=O)OC(C)(C)C)c2c1C(=O)c1ccccc1C2=O` (stereo unspecified): the GI50 in the assay with HOP-62 is 15.4 µM (inactive); in the assay with BT-549, 13 µM (inactive); with SNB-75 it was 20.4 µM (inactive); in the assay on NCI-H522, 13 µM (inactive); in the assay on NCI/ADR-RES, 10.4 µM (inactive); with ACHN it was 15.4 µM (inactive). The GI50 is 18.7 µM (inactive) with Hs-578T; 15.8 µM (inactive) in the assay on A549; 13.8 µM (inactive) in the assay with SW-620; 14.3 µM (inactive) in the assay with SR; 11.1 µM (inactive) in the assay with PC-3; 14.3 µM (inactive) in the assay with SK-MEL-28. Further, the GI50 in the assay on SK-OV-3 is 19.7 µM (inactive); in the assay on UACC-62, 11.6 µM (inactive); in the assay on CCRF-CEM it was > 100 µM (inactive); in the assay on MCF7, 16.2 µM (inactive); in the assay on Malme-3M, 15.1 µM (inactive); in the assay on HCT-116 it was 13.2 µM (inactive).
As to `O=[N+]([O-])c1cc(Cl)cc2cc(Cl)cnc12`, the GI50 in the assay on HOP-62 was > 100 µM (inactive); in the assay with BT-549, > 100 µM (inactive); in the assay with T47D, 16.4 µM (inactive); with SNB-75 it was 15.6 µM (inactive); with NCI-H522, > 100 µM (inactive); in the assay with NCI/ADR-RES it was > 100 µM (inactive). Further, the GI50 is > 100 µM (inactive) in the assay on ACHN; 25.9 µM (inactive) in the assay on Hs-578T; > 100 µM (inactive) in the assay with A549; > 100 µM (inactive) in the assay on SN12C; > 100 µM (inactive) in the assay with SW-620; 63.8 µM (inactive) in the assay on SR. For the same molecule, the GI50 was 93.5 µM (inactive) in the assay on PC-3; > 100 µM (inactive) in the assay on SK-MEL-28; 53.2 µM (inactive) in the assay on UACC-62; > 100 µM (inactive) with CCRF-CEM; > 100 µM (inactive) with Malme-3M; 95.1 µM (inactive) with HCT-116.
Turning to `COc1ccc(/C=C2/C(=O)N(C(=O)c3ccccc3O)N=C2C)cc1OC`, the GI50 was 1.99 µM (inactive) in the assay on HOP-62; 0.388 µM (active) in the assay on BT-549; 1.71 µM (inactive) in the assay on NCI-H522; 0.614 µM (active) in the assay with NCI/ADR-RES; 0.162 µM (active) with ACHN; 0.33 µM (active) in the assay with A549. Besides, the GI50 in the assay with SN12C was 2.42 µM (inactive); in the assay on SW-620 it was 3.27 µM (inactive); in the assay with SR, 0.644 µM (active); with PC-3, 2.37 µM (inactive); in the assay on SK-MEL-28, 23.9 µM (inactive); in the assay on SK-OV-3, 1.21 µM (inactive). Moreover, the GI50 with UACC-62 is 0.147 µM (active); in the assay with CCRF-CEM, 0.337 µM (active); in the assay with MCF7, 0.361 µM (active); in the assay on Malme-3M, 0.849 µM (active); with HCT-116 it was 0.275 µM (active).
For the molecule `COc1ccccc1NC(=S)N/N=C/c1cccc(C)n1`, the GI50 with HOP-62 is 5.85 µM (inactive); in the assay with BT-549, 15.1 µM (inactive); in the assay on SNB-75, 5.62 µM (inactive); with NCI-H522, 0.279 µM (active); with NCI/ADR-RES it was 3.31 µM (inactive); in the assay with ACHN, 2.71 µM (inactive). For the same molecule, the GI50 in the assay with Hs-578T was 11.5 µM (inactive); in the assay on A549, 4.16 µM (inactive); in the assay on SN12C, 7.1 µM (inactive); in the assay on SW-620, 3.14 µM (inactive); in the assay with SR, 2.43 µM (inactive); in the assay on PC-3 it was 4.5 µM (inactive). Further, the GI50 in the assay with SK-MEL-28 was 8.53 µM (inactive); with SK-OV-3, 6.55 µM (inactive); in the assay on UACC-62, 3.67 µM (inactive); in the assay on CCRF-CEM, 0.422 µM (active); with MCF7 it was 3.78 µM (inactive); with Malme-3M, 6.24 µM (inactive). In the assay on HCT-116, the GI50 was 3.4 µM (inactive).
Regarding `COC(=O)c1cc(C(=O)OC)cc(-c2ccc3c(c2)-c2nc4c(c(-c5ccc(OC)cc5)c2CC3)CCc2ccc(-c3cc(C(=O)OC)cc(C(=O)OC)c3)cc2-4)c1`, the GI50 in the assay with HOP-62, with BT-549, with T47D, in the assay with SNB-75, in the assay with NCI-H522 and in the assay with NCI/ADR-RES was > 100 µM (inactive) in each case. The GI50 with ACHN, with A549, in the assay with SN12C, in the assay with PC-3, in the assay on SK-MEL-28 and in the assay with SK-OV-3 was > 100 µM (inactive) throughout. For the same molecule, the GI50 in the assay on UACC-62, with MCF7, with Malme-3M and in the assay on HCT-116 was > 100 µM (inactive) each time.
Take `N#CCC1C2CC3C(C2=O)C13` (stereo unspecified): the GI50 in the assay on HOP-62, with T47D, in the assay with SNB-75, in the assay with NCI-H522, in the assay with NCI/ADR-RES and in the assay on ACHN was > 100 µM (inactive) each time. The GI50 in the assay with Hs-578T, with A549, in the assay on SN12C, with SW-620, in the assay with SR and in the assay with PC-3 was > 100 µM (inactive) throughout. Besides, the GI50 in the assay on SK-MEL-28, in the assay with SK-OV-3, in the assay with UACC-62, in the assay on CCRF-CEM, in the assay with MCF7 and with Malme-3M was > 100 µM (inactive) throughout. Moreover, the GI50 with HCT-116 is > 100 µM (inactive).
In the case of `Cc1ccc2[nH]c3[nH]c(=S)[nH]c(=O)c3c2c1`, the GI50 was > 100 µM (inactive) with HOP-62; > 100 µM (inactive) in the assay on BT-549; > 100 µM (inactive) with T47D; 40 µM (inactive) in the assay with SNB-75; > 100 µM (inactive) with NCI-H522; > 100 µM (inactive) in the assay on NCI/ADR-RES. The GI50 with ACHN, in the assay on Hs-578T, in the assay on A549, in the assay with SN12C, with SW-620 and in the assay with SR was > 100 µM (inactive) in each case. Moreover, the GI50 in the assay with SK-OV-3, in the assay with UACC-62, in the assay with CCRF-CEM, in the assay with MCF7, in the assay on Malme-3M and in the assay on HCT-116 was > 100 µM (inactive) throughout.
